For one assay, the target named is T1, glucose transporter (Homo sapiens, UniProt P11166).
T1 construct: intact human erythrocytes labeled with the glucose transporter-specific probe (glucose-GAP); endogenous in cells; host or cells: human erythrocytes
T1 sequence (P11166 1-492): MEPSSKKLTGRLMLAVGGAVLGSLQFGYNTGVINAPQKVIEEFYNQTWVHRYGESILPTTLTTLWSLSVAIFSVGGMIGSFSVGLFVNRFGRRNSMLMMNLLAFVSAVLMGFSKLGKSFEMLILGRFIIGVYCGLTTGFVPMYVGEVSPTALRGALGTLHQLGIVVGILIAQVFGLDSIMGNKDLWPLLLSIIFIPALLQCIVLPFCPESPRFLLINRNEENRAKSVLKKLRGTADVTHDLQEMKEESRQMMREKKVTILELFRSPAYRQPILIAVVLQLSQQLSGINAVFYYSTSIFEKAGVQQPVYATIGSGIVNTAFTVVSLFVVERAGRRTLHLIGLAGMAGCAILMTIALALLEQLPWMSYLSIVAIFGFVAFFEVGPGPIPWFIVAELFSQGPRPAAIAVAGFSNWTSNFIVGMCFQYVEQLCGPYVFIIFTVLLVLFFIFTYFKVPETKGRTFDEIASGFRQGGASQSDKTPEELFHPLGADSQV
Conditions: glucose-glucose transporter complex; Sogin and Hinkle; read-out: dissociation constant; cited from earlier work.

Another assay has as its target ATPase. Conditions: ouabain-ATPase complex; Erdmann and Hasse; read-out: dissociation constant; cited from earlier work.
For assay [1], the system named is human foreskin fibroblasts. The assay can be described thus: Morphology and attachment of cultured fibroblasts on exposure to probe or ligand. It counts as cell-based. On the procedure: Human foreskin fibroblasts were cultured to subconfluency on glass discs placed in culture dishes using Dulbecco's modified Eagle's medium (Gibco Laboratories, Grand Island, NY, U.S.A.). For labeling with glucose-GAP, glass discs with attached fibroblasts were removed from the culture dishes and washed twice with HBS. The cells were then exposed to fresh HBS (experimental) or HBS containing 400 mM glucose or 0.4 uM cytochalasin B (controls) for 5 min at room temperature. […] Cytochem. […] The discs were then placed in a drop of HBS and irradiated on ice as described above for erythrocytes. For labeling with ouabain-GAP cells grown in culture dishes were washed twice with HBS and exposed to HBS containing 400 mM glucose (experimental) or HBS containing 400 mM glucose plus 2 mM ouabain (control) for 15 min at 37° C. An equal volume of ouabain-GAP was then added followed by incubation for 30 min in the dark at room temperature. At this point, the presence of ouabain or ouabain-GAP caused the cells to detach from the substrate. The cells were recovered and unbound probe was removed by centrifugation in HBS. Cells were resuspended in fresh HBS and irradiated for 15 min in a water-jacketed cell at 4° C. using the light source described above.

For `OC[C@H]1OC(O)[C@H](O)[C@@H](O)[C@@H]1O` (stereo partly drawn) [glucose], the Kd at glucose transporter is 50 mM.

In the case of `C[C@@H]1O[C@@H](O[C@H]2C[C@@H](O)[C@]3(CO)[C@H]4[C@H](O)C[C@]5(C)[C@@H](C6=CC(=O)OC6)CC[C@]5(O)[C@@H]4CC[C@]3(O)C2)[C@H](O)[C@H](O)[C@H]1O` [ouabain], the Kd at ATPase was 2.8 nM. For the same compound, the “morphological response of fibroblasts” value in assay [1] was “caused the cells to lift from the substrate and take on a rounded morphology”.

(Values after patent publication US4879220A (priority 1986, dated 1989).)
